Our source for the Ki values is BindingDB's records for doi:10.1007/bf00168610 (UniversitÄT Heidelberg, 1991).

Test [1] has as its target P2Y purinoceptor 2 (Cricetulus griseus, UniProt P58825).
Test [2] addresses T1, Adenosine receptor A1 (Bos taurus, UniProt P28190).
T1 sequence (P28190 whole entry): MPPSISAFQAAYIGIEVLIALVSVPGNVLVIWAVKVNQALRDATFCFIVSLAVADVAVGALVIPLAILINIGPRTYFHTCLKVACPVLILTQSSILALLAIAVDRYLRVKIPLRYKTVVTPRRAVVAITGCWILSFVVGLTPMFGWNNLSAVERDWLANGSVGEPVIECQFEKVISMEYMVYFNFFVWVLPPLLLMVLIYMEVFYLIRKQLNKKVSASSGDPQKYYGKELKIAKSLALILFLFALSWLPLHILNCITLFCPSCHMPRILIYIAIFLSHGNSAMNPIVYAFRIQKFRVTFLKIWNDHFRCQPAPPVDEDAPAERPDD

The target in test [3] is T2, Adenosine receptor A3 (Ovis aries, UniProt P35342).
T2 sequence (P35342 whole entry): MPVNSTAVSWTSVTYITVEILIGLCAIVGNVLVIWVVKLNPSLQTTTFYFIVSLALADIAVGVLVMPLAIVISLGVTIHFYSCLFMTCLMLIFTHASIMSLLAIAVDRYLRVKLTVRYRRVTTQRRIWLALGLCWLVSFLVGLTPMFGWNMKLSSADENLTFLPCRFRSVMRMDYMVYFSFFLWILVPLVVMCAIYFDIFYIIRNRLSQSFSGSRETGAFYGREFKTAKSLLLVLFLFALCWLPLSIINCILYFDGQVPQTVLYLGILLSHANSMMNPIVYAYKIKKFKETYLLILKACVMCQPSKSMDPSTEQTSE

In test [4] the target is T3, Adenosine receptor A1 (Oryctolagus cuniculus, UniProt P34970).
T3 sequence (P34970 whole entry): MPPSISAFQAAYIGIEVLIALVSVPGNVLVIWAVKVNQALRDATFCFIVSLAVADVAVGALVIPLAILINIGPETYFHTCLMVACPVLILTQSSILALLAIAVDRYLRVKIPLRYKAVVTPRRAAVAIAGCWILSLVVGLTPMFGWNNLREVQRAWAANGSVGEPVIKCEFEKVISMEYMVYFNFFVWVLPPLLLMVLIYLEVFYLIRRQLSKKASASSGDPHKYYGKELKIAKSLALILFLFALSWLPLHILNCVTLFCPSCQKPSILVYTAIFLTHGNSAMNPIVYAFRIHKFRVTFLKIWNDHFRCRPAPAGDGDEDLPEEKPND

The target of test [5] is T4, Adenosine receptor A1 (Cavia porcellus, UniProt P47745).
T4 sequence (P47745 whole entry): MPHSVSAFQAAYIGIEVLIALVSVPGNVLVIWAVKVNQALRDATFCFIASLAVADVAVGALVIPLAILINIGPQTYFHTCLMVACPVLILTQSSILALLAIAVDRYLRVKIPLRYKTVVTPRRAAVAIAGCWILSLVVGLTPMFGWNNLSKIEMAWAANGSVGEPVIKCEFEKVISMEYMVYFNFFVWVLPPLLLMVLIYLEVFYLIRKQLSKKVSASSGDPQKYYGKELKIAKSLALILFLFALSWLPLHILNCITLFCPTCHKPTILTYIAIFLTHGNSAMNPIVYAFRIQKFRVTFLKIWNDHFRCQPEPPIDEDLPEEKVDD

Test [6] deals with T5, Adenosine receptor A1 (Rattus norvegicus, UniProt P25099).
T5 sequence (P25099 whole entry): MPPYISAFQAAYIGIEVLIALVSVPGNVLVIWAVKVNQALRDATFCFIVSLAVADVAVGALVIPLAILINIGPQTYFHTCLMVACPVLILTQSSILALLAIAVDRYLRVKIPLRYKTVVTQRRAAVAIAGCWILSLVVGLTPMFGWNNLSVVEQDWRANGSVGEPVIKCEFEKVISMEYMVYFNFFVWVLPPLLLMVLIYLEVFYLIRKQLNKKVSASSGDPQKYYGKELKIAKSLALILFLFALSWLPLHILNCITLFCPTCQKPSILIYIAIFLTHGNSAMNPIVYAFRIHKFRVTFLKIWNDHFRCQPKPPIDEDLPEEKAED

The structures appear in SMILES notation. Several values for one entry are separate records, joined by “and”; a condition that tells them apart may be missing. Equal values may be shown once.

P2Y purinoceptor 2, sequence (P58825 whole entry): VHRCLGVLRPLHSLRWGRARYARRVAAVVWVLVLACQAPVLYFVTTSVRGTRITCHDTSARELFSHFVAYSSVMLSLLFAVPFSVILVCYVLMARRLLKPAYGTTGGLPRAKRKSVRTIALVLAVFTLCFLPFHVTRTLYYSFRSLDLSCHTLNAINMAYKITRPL

Take `CCCn1c(=O)c2[nH]c(-c3ccc(OCC(=O)NCCN)cc3)nc2n(CCC)c1=O` [N-(2-Amino-ethyl)-2-[4-(2,6-dioxo-1,3-dipropyl-2,3,6,9-tetrahydro-1H-purin-8-yl)-phenoxy]-acetamide]: the Ki is 0.31 nM in test [1]; 0.03 nM in test [2]; 0.09 nM in test [3]; 0.45 nM in test [4]; 1.48 nM and 5.49 nM in test [5]; 0.49 nM in test [6].

Turning to `CCCn1c(=O)c2[nH]c(C3CCCC3)nc2n(CCC)c1=O` [DPCPX], the figures for the Ki in test [1], in test [2] and in test [3] were 0.14 nM, 0.05 nM and 0.1 nM, respectively.

Consider `Cn1c(=O)c2[nH]cnc2n(C)c1=O` [Theophylline (1,3-dimethylxanthine)], for which the values for the Ki in test [1], in test [3] and in test [4] were 4550 nM, 9050 nM and 4710 nM, respectively.

For `Cn1c(=O)c2[nH]c(C3CCCC3)nc2n(C)c1=O` [NSC_1917], the Ki in test [1] was 4.3 nM; in test [2], 1.4 nM; in test [3], 2.9 nM; in test [4], 6.4 nM; in test [5], 26.1 nM; in test [6], 6.3 nM.
